Data: patent US20020137929A1, “1 - (3-heterocyclylphenyl) isothiourea, -isourea, -guanidine and -amidine herbicidal agents” (Intellectual Property Department, BASF Aktiengesellschaft, priority 1998, published 2002)

What was measured:
[1] = test system: SAGPY (Arrowhead (Pygmaea)); test: Postemergence weed control under flooded paddy conditions; type: in vivo, Sagittaria pygmaea; conditions: postemergence weeds, 3-4 weeks after treatment
Source text: Results of herbicide evaluation are expressed on a rating scale (0-9). The scale is based upon a visual observation of plant stand, vigor, malformation, size, chlorosis and overall plant appearance as compared with a control.
Plastic containers containing weeds which are 3 to 5 cm tall and rice seedlings at the 1.5 to 2.5 leaf stage are flooded with water. The water is maintained at 1.5 to 3 cm above the soil surface for the duration of the experiment. Test compounds are applied as aqueous/ acetone mixtures 50/50 v/v directly into the flood water to provide the equivalent of about 0.0313 to 0.500 kg/ha of active ingredient. The treated containers are placed on greenhouse benches and cared for in accordance with conventional greenhouse procedures. Three to four weeks after treatment, the test is terminated and each container is examined and herbicidal effect rated according to the rating system provided in Example 37. The compounds evaluated are reported by compound number given in Example 37.

AMBEL (Ragweed, Common) = test: Postemergence herbicidal evaluation; type: in vivo, Ambrosia artemisifolia; conditions: postemergence
How it was run: (§1)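 ~2-wk seedlings; postemergence spray, 40 psi; vehicle 1:1 acetone:water + 0.5% Tween 20; rate ≈0.0156–0.500 kg/ha; greenhouse hold; scored 4–5 wk after treatment, 0–9 scale vs control; repeat tests averaged.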

SETVI (Foxtail, Green) = test: Preemergence herbicidal evaluation; type: in vivo, Setaria viridis; conditions: rated 4-5 weeks after treatment
How it was run: (§2)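 Seeds were planted in potting soil in cups, then sprayed preemergence with the test compound in aqueous acetone at about 0.0156 to 0.500 kg per hectare. Cups were kept under greenhouse conditions and visually rated 4–5 weeks after treatment on a 0–9 scale against an untreated control.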

[2] = test system: SAGPY (Arrowhead (Pygmaea)); test: Preemergence weed control under flooded paddy conditions; type: in vivo, Sagittaria pygmaea; conditions: rated 3-4 weeks after treatment
How it was run: (§3)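 Visual injury scored 0-9 against control three to four weeks post-treatment, greenhouse-grown. Application: acetone/water (50/50) solutions dosed directly into flood water (1.5-3 cm over silt loam, planted top 0.5 cm), roughly 0.0313 to 0.500 kg/ha active ingredient.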

[3] = test system: ECHORC (Watergrass (Calif.)); test: as above; type: in vivo, Echinochloa oryzoides; conditions: rated 3-4 weeks after treatment
How it was run: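 Flooded-pot preemergence screen with silt loam and seeds in the upper 0.5 cm. Dose about 0.0313 to 0.500 kg/ha, delivered into flood water; visual 0-9 score after 3 to 4 weeks.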

ORYSAT (Rice, Tebonnet) = test: Preemergence herbicidal evaluation; type: in vivo, Oryza sativa, (L.) Tebonnet; conditions: rated 4-5 weeks after treatment
How it was run: as §2

[4] = test system: ECHORC (Watergrass (Calif.)); test: Postemergence weed control under flooded paddy conditions; type: in vivo, Echinochloa oryzoides; conditions: postemergence weeds, 3-4 weeks after treatment
How it was run: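 Containers holding 3–5 cm weeds and rice at 1.5–2.5 leaves are flooded to 1.5–3 cm above soil. Compound in 50/50 v/v aqueous/acetone is then added directly to the water, about 0.0313–0.500 kg/ha. Plants are kept in the greenhouse and rated 0–9 visually at 3–4 weeks.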

GALAP (Galium) = test: Postemergence herbicidal evaluation; type: in vivo, Galium aparine; conditions: postemergence
How it was run: as §1

CYPSE (Flatsedge) = test: Preemergence weed control under flooded paddy conditions; type: in vivo, Cyperus serotinus; conditions: rated 3-4 weeks after treatment
How it was run: as §3

MOOVA (Monochoria) = test: as above; type: in vivo, Monochoria vaginalis; conditions: rated 3-4 weeks after treatment
How it was run: as §3

[5] = test system: TRZAWR (Wheat, Winter, cv Riband); test: Postemergence herbicidal evaluation; type: in vivo, Triticum aestivum; conditions: postemergence
How it was run: as §1

CASOB (Sicklepod) = test: Postemergence herbicidal evaluation; type: in vivo, Cassia obtusifolia; conditions: postemergence
How it was run: as §1

CCC1SC(=Nc2cc(N3C(=O)C4=C(CCCC4)C3=O)c(F)cc2Cl)N(C)C1=O (centres unmarked) [Compound 6, N-{4-chloro-5-[(5-ethyl-3-methyl-4-oxo-2-thiazolidinylidene)amino]-2-fluorophenyl}-1-cyclohexene-1,2-dicarboximide]
Herbicidal rating SAGPY ([1]; rate 0.0313 kg/ha): 0.0
Herbicidal rating SAGPY ([1]; rate 0.0625 kg/ha): 0.0
Herbicidal rating SAGPY ([1]; rate 0.1250 kg/ha): 0.0
Herbicidal rating SAGPY ([1]; rate 0.2500 kg/ha): 0.0
Herbicidal rating SAGPY ([1]; rate 0.5000 kg/ha): 0.0
AMBEL herbicidal rating (AMBEL (Ragweed, Common); rate 0.0157 kg/ha): 2.0
AMBEL herbicidal rating (AMBEL (Ragweed, Common); rate 0.0313 kg/ha): 2.0
AMBEL herbicidal rating (AMBEL (Ragweed, Common); rate 0.0625 kg/ha): 2.0
AMBEL herbicidal rating (AMBEL (Ragweed, Common); rate 0.1250 kg/ha): 4.0
AMBEL herbicidal rating (AMBEL (Ragweed, Common); rate 0.2500 kg/ha): 4.0
AMBEL herbicidal rating (AMBEL (Ragweed, Common); rate 0.5000 kg/ha): 4.0
SETVI preemergence herbicidal rating (SETVI (Foxtail, Green); rate 0.1250 kg/ha): 0.0
SETVI preemergence herbicidal rating (SETVI (Foxtail, Green); rate 0.2500 kg/ha): 2.0
Herbicidal rating SAGPY ([2]; 0.0313 kg/ha): 0.0
Herbicidal rating SAGPY ([2]; 0.0625 kg/ha): 0.0
Herbicidal rating SAGPY ([2]; 0.1250 kg/ha): 0.0
Herbicidal rating SAGPY ([2]; 0.2500 kg/ha): 0.0
Herbicidal rating SAGPY ([2]; 0.5000 kg/ha): 0.0
Herbicidal rating ECHORC ([3]; 0.0313 kg/ha): 0.0
Herbicidal rating ECHORC ([3]; 0.0625 kg/ha): 0.0
Herbicidal rating ECHORC ([3]; 0.1250 kg/ha): 2.0
Herbicidal rating ECHORC ([3]; 0.2500 kg/ha): 7.0
Herbicidal rating ECHORC ([3]; 0.5000 kg/ha): 7.0
ORYSAT preemergence herbicidal rating (ORYSAT (Rice, Tebonnet); rate 0.1250 kg/ha): 0.0
ORYSAT preemergence herbicidal rating (ORYSAT (Rice, Tebonnet); rate 0.2500 kg/ha): 0.0
ORYSAT preemergence herbicidal rating (ORYSAT (Rice, Tebonnet); rate 0.5000 kg/ha): 0.0
Herbicidal rating ECHORC ([4]; rate 0.0313 kg/ha): 0.0
Herbicidal rating ECHORC ([4]; rate 0.0625 kg/ha): 0.0
Herbicidal rating ECHORC ([4]; rate 0.1250 kg/ha): 1.0
Herbicidal rating ECHORC ([4]; rate 0.2500 kg/ha): 3.5
Herbicidal rating ECHORC ([4]; rate 0.5000 kg/ha): 3.5
GALAP herbicidal rating (GALAP (Galium); rate 0.0157 kg/ha): 0.0
GALAP herbicidal rating (GALAP (Galium); rate 0.0313 kg/ha): 0.0
GALAP herbicidal rating (GALAP (Galium); rate 0.0625 kg/ha): 0.0
GALAP herbicidal rating (GALAP (Galium); rate 0.1250 kg/ha): 2.0
GALAP herbicidal rating (GALAP (Galium); rate 0.2500 kg/ha): 7.0
GALAP herbicidal rating (GALAP (Galium); rate 0.5000 kg/ha): 9.0
Herbicidal rating CYPSE (CYPSE (Flatsedge); 0.0313 kg/ha): 0.0
Herbicidal rating CYPSE (CYPSE (Flatsedge); 0.0625 kg/ha): 0.0
Herbicidal rating CYPSE (CYPSE (Flatsedge); 0.1250 kg/ha): 0.0
Herbicidal rating CYPSE (CYPSE (Flatsedge); 0.2500 kg/ha): 0.0
Herbicidal rating CYPSE (CYPSE (Flatsedge); 0.5000 kg/ha): 0.0
Herbicidal rating MOOVA (MOOVA (Monochoria); 0.0313 kg/ha): 2.0
Herbicidal rating MOOVA (MOOVA (Monochoria); 0.0625 kg/ha): 8.0
Herbicidal rating MOOVA (MOOVA (Monochoria); 0.1250 kg/ha): 8.0
Herbicidal rating MOOVA (MOOVA (Monochoria); 0.2500 kg/ha): 9.0
Herbicidal rating MOOVA (MOOVA (Monochoria); 0.5000 kg/ha): 9.0
TRZAWR herbicidal rating ([5]; rate 0.0157 kg/ha): 2.5
TRZAWR herbicidal rating ([5]; rate 0.0313 kg/ha): 2.5
TRZAWR herbicidal rating ([5]; rate 0.0625 kg/ha): 3.0
TRZAWR herbicidal rating ([5]; rate 0.1250 kg/ha): 3.0
TRZAWR herbicidal rating ([5]; rate 0.2500 kg/ha): 3.5
TRZAWR herbicidal rating ([5]; rate 0.5000 kg/ha): 3.5
CASOB herbicidal rating (CASOB (Sicklepod); rate 0.0157 kg/ha): 0.0
CASOB herbicidal rating (CASOB (Sicklepod); rate 0.0313 kg/ha): 0.0
CASOB herbicidal rating (CASOB (Sicklepod); rate 0.0625 kg/ha): 0.0
CASOB herbicidal rating (CASOB (Sicklepod); rate 0.1250 kg/ha): 0.0
CASOB herbicidal rating (CASOB (Sicklepod); rate 0.2500 kg/ha): 2.0
CASOB herbicidal rating (CASOB (Sicklepod); rate 0.5000 kg/ha): 6.0
